# Results reported in ChEMBL document CHEMBL1201862, “PubChem BioAssay data set” (2004).
#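 Protocol summary: plate cells (96-well), add compound at 5 concentrations, incubate 48 h, interpolate endpoints linearly. GI50 = concentration required for 50% inhibition of growth.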 Calls of active or inactive are those of the source. Cut-off read from the data, not from the text of the source: active = GI50 up to about 1.1 µM and inactive = higher.
# Tests used:
# Assay in all cases: NCI anticancer screen, dose series, 48 h
# [1] = system: U-251
# [2] = system: MOLT-4
# [3] = system: CCRF-CEM
# [4] = system: HOP-92
# [5] = system: NCI/ADR-RES
# [6] = system: SW-620
# [7] = system: HT-29
# [8] = system: NCI-H226
# [9] = system: PC-3
# [10] = system: COLO 205
# [11] = system: HCT-15
# [12] = system: HCT-116
# [13] = system: OVCAR-8
# [14] = system: K562
# [15] = system: MDA-N
# [16] = system: SNB-19
# [17] = system: HL-60
# [18] = system: CAKI-1
# [19] = system: RPMI-8226
Compound,GI50 [1],GI50 [2],GI50 [3],GI50 [4],GI50 [5],GI50 [6],GI50 [7],GI50 [8],GI50 [9],GI50 [10],GI50 [11] [µM],GI50 [12],GI50 [13],GI50 [14],GI50 [15],GI50 [16],GI50 [17],GI50 [18],GI50 [19]
O=C(/C=C/c1ccc(O)c(O)c1)OCCc1ccc2ccccc2c1,10.8 µM (inactive),2.2 µM (inactive),4.63 µM (inactive),6.35 µM (inactive),4.08 µM (inactive),6.93 µM (inactive),12.9 µM (inactive),14.8 µM (inactive),7.55 µM (inactive),4.59 µM (inactive),2.49,5.24 µM (inactive),10.4 µM (inactive),2.99 µM (inactive),2.38 µM (inactive),12.8 µM (inactive),,,
CC1(C)N(OC2CCCCO2)C(c2ccccc2)C(c2ccccc2)=[N+]1[O-] (configuration not stated),> 100 µM (inactive),30 µM (inactive),60.5 µM (inactive),> 100 µM (inactive),49.2 µM (inactive),> 100 µM (inactive),> 100 µM (inactive),> 100 µM (inactive),52.2 µM (inactive),> 100 µM (inactive),> 100,60.3 µM (inactive),32.1 µM (inactive),58.9 µM (inactive),> 100 µM (inactive),> 100 µM (inactive),8.93 µM (inactive),> 100 µM (inactive),
CC(=O)Oc1ccc2c(c1)c1c(=O)oc(N(C)C)nc1n2Cc1ccccc1,39 µM (inactive),34 µM (inactive),55.6 µM (inactive),19.5 µM (inactive),34.8 µM (inactive),81.1 µM (inactive),64 µM (inactive),> 80.4 µM (inactive),> 61.4 µM (inactive),> 56.4 µM (inactive),37.9,39.9 µM (inactive),57.8 µM (inactive),39.4 µM (inactive),> 71.4 µM (inactive),> 100 µM (inactive),23.6 µM (inactive),,> 65 µM (inactive)
Cc1cn([C@H]2C[C@@H](N3C(=O)c4ccccc4C3=O)[C@@H](CO[Si](C)(C)C(C)(C)C)O2)c(=O)[nH]c1=O,34.9 µM (inactive),36.9 µM (inactive),36 µM (inactive),48.6 µM (inactive),43.3 µM (inactive),> 100 µM (inactive),20.4 µM (inactive),57.1 µM (inactive),> 100 µM (inactive),> 100 µM (inactive),> 100,49.2 µM (inactive),32.5 µM (inactive),52.5 µM (inactive),> 100 µM (inactive),29.3 µM (inactive),,53.3 µM (inactive),> 100 µM (inactive)
CCc1cc2c(c3c1CCC3=O)CC1(Cc3ccc(C)cc3C1)C2 (configuration not stated),30.5 µM (inactive),11.5 µM (inactive),13.6 µM (inactive),22.7 µM (inactive),> 100 µM (inactive),,18.1 µM (inactive),13.5 µM (inactive),23 µM (inactive),27.8 µM (inactive),46.3,17.6 µM (inactive),> 100 µM (inactive),30.5 µM (inactive),38.1 µM (inactive),,21.7 µM (inactive),,22.2 µM (inactive)
COc1ccc(CNc2cc(=O)n(C)c(=O)[nH]2)cc1,> 100 µM (inactive),> 100 µM (inactive),> 100 µM (inactive),> 100 µM (inactive),> 100 µM (inactive),> 100 µM (inactive),> 100 µM (inactive),> 100 µM (inactive),> 100 µM (inactive),> 100 µM (inactive),> 100,> 100 µM (inactive),> 100 µM (inactive),> 100 µM (inactive),> 100 µM (inactive),> 100 µM (inactive),,> 100 µM (inactive),> 100 µM (inactive)
O=Cc1cccc2c1Oc1c(cccc1C(=O)O)S2,62.7 µM (inactive),17.3 µM (inactive),,70.8 µM (inactive),36 µM (inactive),> 100 µM (inactive),> 100 µM (inactive),> 100 µM (inactive),> 100 µM (inactive),23.2 µM (inactive),35.4,28.2 µM (inactive),53.7 µM (inactive),,59.2 µM (inactive),87.7 µM (inactive),,81.1 µM (inactive),25.7 µM (inactive)
O=C(c1cccc(C(=O)c2ccc3c4c(cccc24)C(=O)N(c2ccccc2)C3=O)c1)c1ccc2c3c(cccc13)C(=O)N(c1ccccc1)C2=O,> 100 µM (inactive),> 100 µM (inactive),,42.3 µM (inactive),> 100 µM (inactive),> 100 µM (inactive),> 100 µM (inactive),> 100 µM (inactive),> 100 µM (inactive),> 100 µM (inactive),> 100,> 100 µM (inactive),> 100 µM (inactive),> 100 µM (inactive),> 100 µM (inactive),> 100 µM (inactive),,> 100 µM (inactive),> 100 µM (inactive)
